According to publication PMC6332508, “A Promising PET Tracer for Imaging of α7 Nicotinic Acetylcholine Receptors in the Brain: Design, Synthesis, and in Vivo Evaluation of a Dibenzothiophene-Based Radioligand” (Molecules, 2015):
Where “and” joins values, the source holds several entries; their conditions need not be identical. Equal entries are not always repeated. Where two headings read alike, the source gives them in different places.

Assays:
human α4β2 nAChR = target: T1, human α4β2 nAChR (Homo sapiens, UniProt P17787+P43681); experiment: Radioligand displacement at human α4β2 nAChR, [3H]epibatidine, HEK293 cells; format: binding
T1 construct: expressed in transfected cells; host or cells: HEK293
T1 sequence (P43681 29-627 limits assumed): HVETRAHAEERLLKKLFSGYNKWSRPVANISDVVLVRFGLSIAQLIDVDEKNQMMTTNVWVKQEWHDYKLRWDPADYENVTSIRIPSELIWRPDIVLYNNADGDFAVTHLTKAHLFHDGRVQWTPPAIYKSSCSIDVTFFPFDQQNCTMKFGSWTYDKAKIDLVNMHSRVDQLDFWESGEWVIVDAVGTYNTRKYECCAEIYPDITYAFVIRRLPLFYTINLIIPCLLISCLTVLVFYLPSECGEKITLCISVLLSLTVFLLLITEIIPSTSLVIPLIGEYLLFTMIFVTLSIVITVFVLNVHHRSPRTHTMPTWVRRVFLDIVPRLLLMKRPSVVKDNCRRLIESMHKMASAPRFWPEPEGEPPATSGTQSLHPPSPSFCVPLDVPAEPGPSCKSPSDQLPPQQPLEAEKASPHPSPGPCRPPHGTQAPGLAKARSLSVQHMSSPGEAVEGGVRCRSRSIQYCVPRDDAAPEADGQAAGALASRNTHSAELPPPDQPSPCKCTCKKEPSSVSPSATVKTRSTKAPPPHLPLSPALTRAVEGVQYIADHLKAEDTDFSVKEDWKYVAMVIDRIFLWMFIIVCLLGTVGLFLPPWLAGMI
T1 sequence (P17787 26-502): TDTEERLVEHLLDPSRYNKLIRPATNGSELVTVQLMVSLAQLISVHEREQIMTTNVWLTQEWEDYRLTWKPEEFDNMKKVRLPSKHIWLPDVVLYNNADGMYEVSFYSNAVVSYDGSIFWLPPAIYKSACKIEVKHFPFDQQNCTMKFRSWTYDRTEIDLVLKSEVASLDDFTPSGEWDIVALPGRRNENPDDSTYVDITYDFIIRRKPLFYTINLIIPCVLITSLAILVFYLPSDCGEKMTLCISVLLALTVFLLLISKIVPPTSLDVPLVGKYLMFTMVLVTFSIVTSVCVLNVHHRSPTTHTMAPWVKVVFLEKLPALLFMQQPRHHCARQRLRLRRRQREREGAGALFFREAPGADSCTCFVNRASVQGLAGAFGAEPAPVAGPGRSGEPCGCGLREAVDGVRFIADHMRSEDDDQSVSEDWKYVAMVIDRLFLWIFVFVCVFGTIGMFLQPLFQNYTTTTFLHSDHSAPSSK
Method: (§1) The affinity of the test compounds for human α4β2 and α3β4 nAChR was determined as described above. In brief, HEK293 cells stably expressing human α4β2 or α3β4 nAChR [66] were cultured. […] Nonspecific binding was determined in the presence of 300 μM (−)-nicotine tartrate. Incubation of the samples, separation of free from receptor-bound radioligand, and data evaluation were performed as described above.

human α7 nAChR = target: T2, human α7 nAChR (Homo sapiens, UniProt P36544); experiment: Radioligand displacement at human α7 nAChR, [3H]methyllycaconitine, SH-SY5Y cells; format: binding; settings: for Selectivity (Ki ratio) α7/α3β4: Ki hα3β4 divided by Ki hα7; for Selectivity (Ki ratio) α7/α4β2: Ki hα4β2 divided by Ki hα7
T2 construct: expressed in transfected cells; host or cells: SH-SY5Y
T2 sequence (P36544 23-502): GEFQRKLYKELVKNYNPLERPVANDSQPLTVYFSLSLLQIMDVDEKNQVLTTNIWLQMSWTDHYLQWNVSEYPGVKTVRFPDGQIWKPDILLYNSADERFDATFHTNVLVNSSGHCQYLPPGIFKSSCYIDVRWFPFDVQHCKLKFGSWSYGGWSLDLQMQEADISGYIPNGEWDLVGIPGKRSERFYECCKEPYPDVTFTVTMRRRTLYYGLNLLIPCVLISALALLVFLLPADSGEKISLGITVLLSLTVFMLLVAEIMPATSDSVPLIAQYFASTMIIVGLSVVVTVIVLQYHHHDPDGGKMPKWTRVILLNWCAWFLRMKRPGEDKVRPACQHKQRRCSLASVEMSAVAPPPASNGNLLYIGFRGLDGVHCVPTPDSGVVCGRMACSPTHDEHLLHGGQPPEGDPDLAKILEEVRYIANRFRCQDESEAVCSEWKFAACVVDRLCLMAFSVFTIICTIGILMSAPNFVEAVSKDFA

human 5-HT3 receptor = target: T3, human 5-HT3 receptor (Homo sapiens, UniProt P46098); experiment: Radioligand binding at human 5-HT3 receptor, [3H]GR65630 (Eurofins Panlabs); settings: read-out: 5-HT3 percentage of inhibition
T3 construct: host or cells: HEK-293
T3 sequence (P46098 24-478): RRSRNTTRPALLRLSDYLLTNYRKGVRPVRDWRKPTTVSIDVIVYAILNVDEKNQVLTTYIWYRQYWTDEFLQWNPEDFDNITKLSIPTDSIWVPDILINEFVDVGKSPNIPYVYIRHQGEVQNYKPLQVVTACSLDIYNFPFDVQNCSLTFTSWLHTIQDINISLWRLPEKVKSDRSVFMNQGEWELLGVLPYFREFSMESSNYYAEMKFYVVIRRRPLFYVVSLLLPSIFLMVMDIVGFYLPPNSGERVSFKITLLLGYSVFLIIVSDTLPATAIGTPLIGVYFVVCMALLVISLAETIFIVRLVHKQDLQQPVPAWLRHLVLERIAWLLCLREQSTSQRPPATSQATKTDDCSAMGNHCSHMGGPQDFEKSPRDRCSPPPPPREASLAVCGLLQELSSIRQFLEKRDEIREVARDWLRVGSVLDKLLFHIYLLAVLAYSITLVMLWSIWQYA

human α3β4 nAChR = target: T4, human α3β4 nAChR (Homo sapiens, UniProt P30926+P32297); experiment: Radioligand displacement at human α3β4 nAChR, [3H]epibatidine, HEK293 cells; format: binding
T4 construct: expressed in transfected cells; host or cells: HEK293
T4 sequence (P32297 32-505): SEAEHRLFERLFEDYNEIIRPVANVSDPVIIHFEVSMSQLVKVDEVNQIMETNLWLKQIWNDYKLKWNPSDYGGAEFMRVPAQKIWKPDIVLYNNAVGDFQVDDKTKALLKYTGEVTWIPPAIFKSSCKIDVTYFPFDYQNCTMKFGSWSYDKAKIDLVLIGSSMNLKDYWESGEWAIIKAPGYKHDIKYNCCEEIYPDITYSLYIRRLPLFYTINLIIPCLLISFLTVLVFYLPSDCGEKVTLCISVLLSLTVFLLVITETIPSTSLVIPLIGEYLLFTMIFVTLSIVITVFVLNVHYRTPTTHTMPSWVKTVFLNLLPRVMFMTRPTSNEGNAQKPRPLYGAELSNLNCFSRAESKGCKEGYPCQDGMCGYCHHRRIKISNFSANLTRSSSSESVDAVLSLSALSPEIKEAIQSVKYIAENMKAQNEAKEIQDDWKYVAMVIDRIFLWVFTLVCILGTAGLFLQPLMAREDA
T4 sequence (P30926 22-498): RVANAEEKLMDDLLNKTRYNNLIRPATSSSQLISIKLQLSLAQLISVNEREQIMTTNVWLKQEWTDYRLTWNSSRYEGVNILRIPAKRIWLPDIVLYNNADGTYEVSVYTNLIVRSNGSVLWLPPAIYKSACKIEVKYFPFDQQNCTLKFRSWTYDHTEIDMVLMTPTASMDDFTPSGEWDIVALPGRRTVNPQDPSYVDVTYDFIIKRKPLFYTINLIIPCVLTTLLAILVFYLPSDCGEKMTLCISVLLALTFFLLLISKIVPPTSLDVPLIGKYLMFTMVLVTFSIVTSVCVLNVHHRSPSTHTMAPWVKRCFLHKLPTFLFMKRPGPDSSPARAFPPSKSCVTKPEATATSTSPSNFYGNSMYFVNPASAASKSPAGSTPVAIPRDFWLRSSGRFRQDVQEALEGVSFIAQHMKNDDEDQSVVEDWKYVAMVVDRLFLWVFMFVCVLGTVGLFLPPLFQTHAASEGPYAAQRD
Method: as §1

rat α6β2* nAChR = rat α6β2* nAChR (Rattus norvegicus, UniProt P12390+P43143); experiment: [3H]epibatidine binding to antibody-immobilized native rat α6β2* nAChR from striatum; settings: read-out: Affinity (Ki in nM) rα6β2*, immunoimmobilization with anti-rα6 antibody, [3H]epibatidine 0.1 nM
rat α6β2* nAChR, sequence (P43143 31-493): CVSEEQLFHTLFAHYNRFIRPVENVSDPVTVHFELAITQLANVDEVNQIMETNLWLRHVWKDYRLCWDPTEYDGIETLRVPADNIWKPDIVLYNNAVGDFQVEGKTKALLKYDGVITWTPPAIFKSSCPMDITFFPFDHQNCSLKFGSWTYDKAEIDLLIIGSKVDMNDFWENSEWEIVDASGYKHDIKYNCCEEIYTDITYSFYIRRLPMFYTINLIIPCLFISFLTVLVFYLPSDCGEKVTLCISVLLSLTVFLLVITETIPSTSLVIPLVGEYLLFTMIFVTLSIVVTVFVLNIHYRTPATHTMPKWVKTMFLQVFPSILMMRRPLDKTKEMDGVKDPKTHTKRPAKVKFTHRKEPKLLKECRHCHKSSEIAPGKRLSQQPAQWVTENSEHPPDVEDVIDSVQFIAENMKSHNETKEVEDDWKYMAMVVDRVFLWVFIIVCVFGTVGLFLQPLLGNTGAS
rat α6β2* nAChR, sequence (P12391 31-464, further chain): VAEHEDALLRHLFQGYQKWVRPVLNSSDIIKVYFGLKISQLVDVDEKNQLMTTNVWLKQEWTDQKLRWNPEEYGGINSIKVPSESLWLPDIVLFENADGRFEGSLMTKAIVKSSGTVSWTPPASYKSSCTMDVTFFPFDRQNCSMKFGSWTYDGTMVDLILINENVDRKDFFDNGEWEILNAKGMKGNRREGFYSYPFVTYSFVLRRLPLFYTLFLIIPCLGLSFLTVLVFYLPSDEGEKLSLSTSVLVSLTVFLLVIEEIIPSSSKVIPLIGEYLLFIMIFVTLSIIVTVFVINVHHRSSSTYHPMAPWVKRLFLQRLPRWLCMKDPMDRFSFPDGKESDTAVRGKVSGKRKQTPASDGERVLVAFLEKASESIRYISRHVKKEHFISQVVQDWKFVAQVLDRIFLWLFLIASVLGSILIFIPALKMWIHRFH
rat α6β2* nAChR, sequence (P12390 25-500): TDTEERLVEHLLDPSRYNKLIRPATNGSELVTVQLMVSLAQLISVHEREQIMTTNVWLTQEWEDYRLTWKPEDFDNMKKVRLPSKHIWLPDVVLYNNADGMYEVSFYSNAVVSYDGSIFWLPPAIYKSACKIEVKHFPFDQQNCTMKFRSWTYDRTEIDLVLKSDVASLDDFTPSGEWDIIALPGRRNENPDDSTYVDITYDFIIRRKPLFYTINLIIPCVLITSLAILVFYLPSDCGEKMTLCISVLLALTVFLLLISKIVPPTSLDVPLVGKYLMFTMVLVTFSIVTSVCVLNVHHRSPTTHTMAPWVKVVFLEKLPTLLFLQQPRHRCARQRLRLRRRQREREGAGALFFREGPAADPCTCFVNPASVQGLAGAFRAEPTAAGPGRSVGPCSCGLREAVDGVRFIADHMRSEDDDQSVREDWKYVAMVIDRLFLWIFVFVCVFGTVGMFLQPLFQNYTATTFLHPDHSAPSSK
Method: The specificity of the anti-α6 antibody was tested as described. The receptors were prepared and immobilized as previously described by the subunit-specific antibody. […] Incubations were performed in a buffer containing 50 mM Tris-HCl, pH 7, 150 mM NaCl, 5 mM KCl, 1 mM MgCl2, 2.5 mM CaCl2, 2 mg∙mL^−1 BSA, and 0.05% Tween 20. Specific ligand binding was defined as total binding minus the binding in the presence of 100 nM (±)-epibatidine dihydrochloride hydrate.
The experimental data obtained from the binding experiments were analyzed by means of a non-linear least square procedure using the LIGAND program. The Ki values of the test compounds were also determined by means of the LIGAND program by simultaneously fitting the data obtained from three to five independent saturation and competition binding experiments.

α3β4 nAChR = target: α3β4 nAChR; set-up: method as in PMID 24050653; settings: rat receptor subtype; cited from earlier work
α7 nAChR [1] = settings: [125I]α-bungarotoxin labelled rat cortical membranes; cited from earlier work
α4β2 nAChR = settings: cited from earlier work
α7 nAChR [2] = target: T5, α7 nAChR (Macaca mulatta, UniProt Q866A2); experiment: Comparative PET study in a rhesus monkey; format: in vivo, rhesus monkey (Macaca mulatta)
T5 construct: from tissue; host or cells: brain of a living rhesus monkey
T5 sequence (Q866A2 23-502): as the sequence (P36544 23-502) above, with N171S, R186K, V373M, V376A counted along it
Method: One male rhesus monkey (Macaca mulatta, 6 years old, body weight = 10 kg) underwent two PET imaging sessions with [^18F]10a and [^18F]10b, respectively. The scans were conducted 19 days apart. The monkey was initially sedated by intramuscular ketamine at 10 mg∙kg^−1 at ~2 h before the PET scan and anesthetized by 1.5%–3% isoflurane throughout the imaging session. PET scan was performed using a FOCUS-220 PET scanner (Siemens Preclinical Solutions, Knoxville, TN, USA). After a transmission scan, 167 MBq of [^18F]10a (specific activity of 362 GBq∙μmol^−1) or 185 MBq of [^18F]10b (specific activity of 159 GBq·μmol^−1) were administered intravenously. Emission data were acquired in list mode for 240 min. Raw list-mode PET data was histogrammed (frames of 6 × 30 s; 3 × 1 min; 2 × 2 min; 46 × 5 min to scan termination) and reconstructed with 2D filtered back projection, using a 0.15 cm^−1 Shepp filter and including corrections for scanner normalization, detector dead time, randoms, and radiation scatter and attenuation. The PET images were then registered to MR images, acquired with a Siemens 3 T Trio scanner, with a 6-parameter rigid body registration. The MR native space was then normalized using nonlinear affine registration to a high-resolution rhesus monkey atlas using BioImage Suite 3.01 (http://www.bioimagesuite.org/index.html). Time-activity curves were extracted by mapping atlas-defined regions to PET native space using the optimal transformation matrices calculated in the registration and normalization steps. Regions extracted included amygdala, caudate, cerebellum, cingulate, cortical regions (frontal, occipital, and temporal cortex), hippocampus, putamen, thalamus, and pons.

[3] = Affinity (Ki in nM) hα3β4, stably transfected HEK-293 cells, [3H]epibatidine
[4] = stably transfected HEK-293 cells, [3H]epibatidine, read-out: Affinity (Ki in nM) hα4β2
[5] = 0.1 μM concentration of test compound, [3H]GR65630 binding
[6] = stably transfected SH-SY5Y cells, [3H]methyllycaconitine, read-out: Affinity (Ki in nM) hα7
[7] = stably transfected HEK-293 cells, [3H]epibatidine, read-out: Affinity (Ki in nM) hα3β4

Compound	melting point	Selectivity (Ki ratio) α7/α3β4 (human α7 nAChR)	Selectivity (Ki ratio) α7/α4β2 (human α7 nAChR)	Ki (human α3β4 nAChR; [3])	Ki (rat α6β2* nAChR)	Ki (human α4β2 nAChR; [4])	inhibition at 0.1 µM (human 5-HT3 receptor; [5])	Ki (human α7 nAChR; [6])	further results
O=[N+]([O-])c1ccc2c(c1)-c1ccc(N3CCN4CCC3CC4)cc1S2(=O)=O	291 to 294 °C (dec.)	–	–	–	–	–	–	–	–
O=S1(=O)c2ccccc2-c2ccc(N3CCN4CCC3CC4)cc21 [Compound 10]	238.5 to 240 °C (dec.)	97	623	49.6 ± 14.7 nM	517 ± 186 nM	–	–	–	Ki (human α4β2 nAChR): 318 ± 43.3 nM; Ki (human α7 nAChR): 0.51 ± 0.32 nM; inhibition at 0.1 µM (human 5-HT3 receptor): 35%
O=S1(=O)c2cc(N3CCN4CCC3CC4)ccc2-c2cccc(F)c21 [Compound 10b, 3-(1,4-Diazabicyclo[3.2.2]nonan-4-yl)-6-fluorodibenzo[b,d]thiophene 5,5-dioxide]	–	–	–	43 nM and 42.3 nM	435 ± 152 nM	211 ± 108 nM	42%	–	Ki (α3β4 nAChR): 0.709 µM; Ki (α7 nAChR [1]): 0.0004 µM
O=S1(=O)c2ccccc2-c2cc(F)c(N3CCN4CCC3CC4)cc21 [Compound 10c, 3-(1,4-Diazabicyclo[3.2.2]nonan-4-yl)-2-fluorodibenzo[b,d]thiophene 5,5-dioxide]	305 to 309 °C (dec.)	33	59	–	1390 ± 340 nM	–	26%	8.53 ± 1.74 nM	Ki (human α4β2 nAChR): 507 ± 212 nM; fold lower affinity at the α7 subtype (human α7 nAChR; relative to 10a and 10b): about 10 fold; Ki (human α3β4 nAChR): 279 ± 24.4 nM
CN1C2CCCC1CN(c1ccc3c(c1)S(=O)(=O)c1ccc(F)cc1-3)C2 [Compound 12a]	214 to 217 °C (dec.)	3	5	96 ± 1.48 nM	1180 ± 360 nM	141 ± 11.7 nM	10%	30.9 ± 8.72 nM	–
CN1C2CCCC1CN(c1ccc3c(c1)S(=O)(=O)c1c(F)cccc1-3)C2 [Compound 12b, 6-Fluoro-3-(9-methyl-3,9-diazabicyclo[3.3.1]nonan-3-yl)dibenzo[b,d]thiophene 5,5-dioxide]	264 to 272 °C (dec.)	1	3	94.8 ± 6.48 nM	1190 ± 230 nM	301 ± 148 nM	11%	105 ± 23.9 nM	–
CN1C2CCC1CN(c1ccc3c(c1)S(=O)(=O)c1c(F)cccc1-3)C2 [Compound 13b]	260.5 to 262.5 °C (dec.)	5	10	–	2260 ± 540 nM	426 ± 197 nM	10%	40.9 ± 7.77 nM	Ki (human α3β4 nAChR; [7]): 224 ± 51.7 nM
CN1CC2CCC(C1)N2c1ccc2c(c1)S(=O)(=O)c1c(F)cccc1-2 [Compound 14b]	254.5 to 256 °C (dec.)	>500	>400	–	1450 ± 370 nM	> 4000 nM	4%	9.26 ± 2.23 nM	Ki (human α3β4 nAChR; [7]): > 5000 nM
O=S1(=O)c2cc(N3CCN4CCC3CC4)ccc2-c2cccc(F)c21 [[^18F]10b, reference compound]	–	–	–	–	–	–	–	–	Ki (α4β2 nAChR): 0.562 µM
O=S1(=O)c2cc(N3CCN4CCC3CC4)ccc2-c2cccc([18F])c21 [[^18F]10b, reference compound]	–	–	–	–	–	–	–	–	total volume of distribution VT (α7 nAChR [2]; cerebellum): 26.8 mL∙cm^−3; total volume of distribution VT (α7 nAChR [2]; thalamus): 46.7 mL∙cm^−3
Fc1ccc(-c2nnc(N3CCN4CCC3CC4)o2)cc1 [[^18F]NS10743]	–	–	–	–	–	–	–	–	Ki (α4β2 nAChR): > 10 µM
